Laboratory results as given in US5026728A, “Treatment of arthritis and inflammation using N,N-dimethylglycine” (Foodscience Corporation, priority 1989, dated 1991).
“And” between values parts separate entries of the source, which are not always exact repeats. Equal values may be shown once. “Also recorded” adds a separate entry of the source. Where a name gives a salt, the structure may show the parent alone. Read-outs that look alike come from different tables or passages of the source.

Legend:
[1] = cited from earlier work
[2] = tested on: arthritis (Type II collagen-induced); test: Type II collagen-induced arthritis in rats, arthritic swelling of hindpaws (Example 1); format: in vivo, Female Wistar outbred rats; parameters: key to rats which showed arthritic swelling (mark): *: Indicates rats which showed arthritic swelling; conditions: 100 mg/kg/day i.p.
Protocol: (§1) Female Wistar outbred rats (age 10-12 weeks) were obtained from Charles River Breeding Laboratories Inc., Wilmington, Mass.) housed in metal cages and fed standard rodent chow with water ad libitum.
(§2) Immunization was performed using the method outlined by Stuart et al. (Stuart et al., supra). Type II collagen was dissolved in 0.01N acetic acid at a concentration of 2 mg/ml stirring overnight at 4° C. An emulsion was made using incomplete Freund's adjuvant (Difco) and each collagen solution at a ratio of 6:4. Eighteen Wistar rats were given 0.1 ml of a cold emulsion of collagen II by intradermal injection of the left hind footpad and booster injections in the tail at one week and again on day 36.
(§3) Dimethylglycine mixed in distilled water was administered intraperitoneally to half of the rats in the study at a dosage rate of 100 mg/kg body weight per day, beginning on the day of collagen immunization. Control rats were injected with only distilled water. Rats were sacrificed at the time of the occurrence of arthritis and were bled by cardiac puncture. Rats surviving at day 30 were bled by the tail vein and were bled again at the end of the study (day 51).
Animals in both groups were observed daily for the onset of arthritis. Swelling of the hindpaws was quantitated by measuring the thickness of the ankle from medial to lateral malleolus with a caliper (as done by Trentham et al. supra).

lymphocytes [3] = conditions: sickle cell disease and diabetes patients; three lectins; cited from earlier work
[4] = tested on: chronic obstructive pulmonary disease (heaves); test: Treatment of chronic obstructive pulmonary disease in horses (Example 5); format: in vivo, horses (standardbred)
Protocol: Three standardbred horses, ages 3 to 7 years, were diagnosed as having chronic obstructive pulmonary disease, also known as equine asthma or the heaves. Clinical signs included frequent coughing, nasal discharge, increased respiratory rate and wheezing in the chest area. The horses were treated orally with 1.5 g of DMG hydrochloride twice daily for ten days.

rheumatoid arthritis = test: Treatment of rheumatoid arthritis in humans (Example 3); format: in vivo, human
Protocol: Three patients, diagnosed as having rheumatoid arthritis in one or both knees with symptoms of acute pain, inflammation, joint tenderness and morning stiffness, were treated orally with 500 mg of DMG taken four times daily. The test period lasted for six weeks, during which time no other antiinflammatory drugs were taken.

[5] = tested on: hybridoma antibody producing cells; conditions: in vitro cell cultures; cited from earlier work
gouty arthritis = test: Treatment of gouty arthritis in humans (Example 4); format: in vivo, human; conditions: 250 mg t.i.d.
Protocol: DMG was administered to two patients suffering from gouty arthritis, at a dosage of 250 mg t.i.d. over a three week period.

interferon [6] = conditions: cited from earlier work
T cells and macrophages [7] = conditions: early research; cited from earlier work
Type II collagen = test: ELISA immunoassay of antibody to Type II collagen in sera of collagen-immunized rats; format: in vivo, Female Wistar outbred rats
Protocol: as §1, §2, §3
Sera were obtained by cardiac puncture on the day arthritis developed or at the end of the study (day 51). An enzyme-linked immunoassay (ELISA) technique adapted from the methods described by Stuart et al. supra was used to measure antibody titres.
Flat bottom 96 well microtitre plates (Corning) were coated with collagen as follows: Collagen was dissolved in 0.4 ionic strength phosphate buffer, pH 7.6 by stirring overnight at 4° C. The collagen concentration was adjusted to 5 μg/ml determined by the Lowry method (Lowry, O. et al., J. Biol. Chem. 193, 265 [1951]). Each well received 100 μl of collagen solution and the plates were incubated at 4° C. overnight. The coating solution was removed by inverting the plate and sharply snapping the wrist to remove remaining droplets. To reduce nonspecific absorption a blocker of phosphate-buffered saline (PBS) (pH 7.4) containing 0.5% ovalbumin (Grade V), Sigma Chemical Co., St. Louis, Mo.) was added and incubated for 1 hr. The plates were washed with PBS-Tween (containing […]) three times and used immediately. The sera were diluted with PBS-Tween containing 0.5% ovalbumin and aliquots of 100 μl were added to the Type II collagen-coatad microtitre plates. The plates were incubated at 4° C. overnight and washed three times with PBS-Tween. One hundred μl of a 1:3000 dilution of rabbit anti-rat IgG peroxidase conjugate (Sigma) was added and incubated for 4 hr at room temperature. Excess conjugate was removed by washing three times with PBS-Tween and the amount of conjugate bound was determined by adding orthophenylenediamine (OPD) (Sigma Chemical Co.) as a substrate. The substrate was prepared by adding 40 mg of OPD to […] of 0.224M citric acid 0.05M dibasic sodium phosphate pH 5.0 and adding 400 μl of 3% hydrogen peroxide. After incubation with the substrate for 20 min the microtitre plates were read for absorbance at 490 nm using a Mini Reader II (Dynatech).

B cells [8] = conditions: early research; cited from earlier work
[9] = tested on: arthritis (Type II collagen-induced); test: Prevention of arthritis in collagen-injected rats (Example 2); format: in vivo
Protocol: Eighteen rats were divided into two groups. Nine animals were injected i.p. with DMG (100 mg/kg body weight) daily, starting on day 14 prior to administration of collagen II, and continuing for 30 days after collagen II injection or until severe arthritic lesions were observed, if earlier. The remaining nine rats were similarly injected i.p. with sterile water. In this experiment, as compared with Example 1, the source of the collagen II was changed from a commercial preparation (Chemicon Corp., Temecula, Calif.) to a fresh preparation prepared by the process according to Trentham et al., 1977, supra.

interferon [10] = conditions: cited from earlier work; remark: listed apart in the source
[11] = greyhounds given DMG; cited from earlier work
[12] = animals under extreme stress; cited from earlier work
lymphocytes [13] = conditions: lymphocytes from DMG-fed animals; cited from earlier work
[14] = human tests; cited from earlier work
B cells [15] = conditions: research on humans; cited from earlier work
lactic acid = conditions: intravenous, severe surgical stress; cited from earlier work
T cells and macrophages [16] = conditions: research on humans; cited from earlier work
[17] = high-dose rats; cited from earlier work
[18] = antibody titre, individual rat, DMG 100 mg/kg/day i.p., absorbance at 490 nm
[19] = mean, DMG-treated rats, 100 mg/kg/day i.p.
[20] = after 5 days, 1.5 g orally twice daily

CN(C)CC(=O)O [DMG, N,N-dimethylglycine]
blood lactic acid level following training ([1]; DMG in the diet): lower blood lactic acid level following training | appetite, attitude and recovery from racing and training ([1]; trainers' observation, versus controls): more aggressive, to have better appetites and attitudes and to recover faster from racing and training than the controls | arthritic swellings of the hindpaws compared with non-DMG-treated group ([2]; beginning on the day of collagen immunization): did not develop to the same extent the arthritic swellings of the hindpaws | rats which showed arthritic swelling (mark) ([2]; individual rat): * | blast transformation activity of lymphocytes (lymphocytes [3]): approximately doubled | effect on inflammatory condition, heaves in horses ([4]; summary statement in description): demonstrated to reduce the inflammatory condition and to be an effective therapy for heaves in horses | fatigue and night pain (rheumatoid arthritis; 500 mg orally four times daily): All three patients reported less fatigue and less night pain | improvement in inflammation, pain and morning stiffness (rheumatoid arthritis; after 21 days, 500 mg orally four times daily): two patients reported significant improvement in reduction of inflammation, pain and morning stiffness; also recorded: the third patient reported a lesser improvement | additional improvement (rheumatoid arthritis; last three weeks of therapy (six weeks)): Additional improvement was noted in all three patients | production of antibodies [5]: increases the production of antibodies | time after which benefits were noted (gouty arthritis): 7 to 10 days | time to maximal benefits (gouty arthritis): maximal after two weeks | pain, redness and inflammation (gouty arthritis; three weeks): Less pain, redness and inflammation were noted | interferon production (interferon [6]): effective in doubling interferon production; also recorded: will increase interferon production | activity of T cells and macrophages (cellular immunity branch) (T cells and macrophages [7]): potentiates the activity of T cells and macrophages | antibody titres compared with control animals (Type II collagen; 100 mg/kg/day i.p., rats immunized with Type II collagen): developed higher antibody titres than control animals | ELISA Reading, serum from day 17 (Type II collagen; [18]): .78 | ELISA Reading, serum from day 30 (Type II collagen; [18]): .47 and .00 and .28 and .32 and .33 and .20 and .17 and .48 | ELISA Reading, serum from day 51 (Type II collagen; [18]): .60 and .88 and .18 and .35 and .90 and .56 and .64 | Mean ELISA Reading, serum from day 17 (Type II collagen; [19]): .78 | Mean ELISA Reading, serum from day 30 (Type II collagen; [19]): .28 | Mean ELISA Reading, serum from day 51 (Type II collagen; [19]): .54 | antibody responses of B cells (humoral branch) (B cells [8]): much higher antibody responses | animals developing characteristic inflammation and swelling, of nine ([9]; 100 mg/kg i.p. daily from day 14 before collagen II, all control animals developed arthritis): only two developed the characteristic inflammation and swelling to any extent | development of inflammation and swelling associated with Type II collagen-induced arthritis ([9]; 100 mg/kg/day, starting on day 14 prior to injection): either does not develop to the same extent, or does not develop at all | interferon level (interferon [10]; primary response, DMG-fed, none detected in immunized controls): high levels of interferon was present | interferon level (interferon [10]; secondary response): Interferon was not present | racing performance [11]: improvement in racing performance | recovery after races [11]: better recovery after races with less fatigue or muscle stiffness | lactic acid levels [12]: decrease lactic acid levels | oxygen utilization [12]: increase oxygen utilization | lymphocyte activation / proliferation (lymphocytes [13]): can stimulate the cellular immune system by lymphatic proliferation | exhaustion time [14]: increase in exhaustion time | immune response (antibody production and lymphocyte generation) [14]: enhancement of the body's immune response | antibody responses of B cells (B cells [15]): much higher antibody responses | lactic acid production (lactic acid): decreased lactic acid production | activity of T cells and macrophages (T cells and macrophages [16]): enhances the activity of T cells and macrophages | adaptation to hypoxia [17]: better adaptation to hypoxia

CN(C)CC(=O)O [DMG-HCl]
breathing and nasal discharge [4, 20]: improved breathing and less nasal discharge | symptomatic relief [4, 20]: All three horses showed symptomatic relief after 5 days | clearing of air passages ([4]; end of 10 days, 1.5 g orally twice daily): the air passages of all three horses had cleared
